Experimental data from PubChem BioAssay (NCI).
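Cultured in 96-well plates, cells were exposed to test compound for 48 hours across five concentrations. TGI denotes the concentration required for complete inhibition of growth.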

Experiments:
Assay in all cases: NCI tumour cell line growth inhibition, 48 h
786-0 renal = tested on: 786-0 renal
A549 NSCLC = tested on: A549 NSCLC
ACHN renal = tested on: ACHN renal
BT-549 breast = tested on: BT-549 breast
CAKI-1 renal = tested on: CAKI-1 renal
CCRF-CEM leukemia = tested on: CCRF-CEM leukemia
COLO 205 colon = tested on: COLO 205 colon
DU-145 prostate = tested on: DU-145 prostate
EKVX NSCLC = tested on: EKVX NSCLC
HCC-2998 colon = tested on: HCC-2998 colon
HCT-116 colon = tested on: HCT-116 colon
HCT-15 colon = tested on: HCT-15 colon
HL-60(TB) leukemia = tested on: HL-60(TB) leukemia
HOP-62 NSCLC = tested on: HOP-62 NSCLC
HOP-92 NSCLC = tested on: HOP-92 NSCLC
HS 578T breast = tested on: HS 578T breast
HT29 colon = tested on: HT29 colon
IGROV1 ovarian = tested on: IGROV1 ovarian
KM12 colon = tested on: KM12 colon
LOX IMVI melanoma = tested on: LOX IMVI melanoma
M14 melanoma = tested on: M14 melanoma
MALME-3M melanoma = tested on: MALME-3M melanoma
MCF7 breast = tested on: MCF7 breast
MDA-MB-231 breast = tested on: MDA-MB-231 breast
MDA-MB-435 = tested on: MDA-MB-435
MDA-N = tested on: MDA-N
MOLT-4 leukemia = tested on: MOLT-4 leukemia
NCI-H226 lung = tested on: NCI-H226 lung
NCI-H23 lung = tested on: NCI-H23 lung
NCI-H460 lung = tested on: NCI-H460 lung
NCI-H522 lung = tested on: NCI-H522 lung
NCI/ADR-RES ovarian = tested on: NCI/ADR-RES ovarian
OVCAR-3 ovarian = tested on: OVCAR-3 ovarian
OVCAR-4 ovarian = tested on: OVCAR-4 ovarian
OVCAR-5 ovarian = tested on: OVCAR-5 ovarian
OVCAR-8 ovarian = tested on: OVCAR-8 ovarian
PC-3 prostate = tested on: PC-3 prostate
RPMI-8226 leukemia = tested on: RPMI-8226 leukemia
SF-268 CNS = tested on: SF-268 CNS
SF-295 CNS = tested on: SF-295 CNS
SF-539 CNS = tested on: SF-539 CNS
SK-MEL-2 melanoma = tested on: SK-MEL-2 melanoma
SK-MEL-28 melanoma = tested on: SK-MEL-28 melanoma
SK-MEL-5 melanoma = tested on: SK-MEL-5 melanoma
SN12C renal = tested on: SN12C renal
SNB-19 CNS = tested on: SNB-19 CNS
SNB-75 CNS = tested on: SNB-75 CNS
SR leukemia = tested on: SR leukemia
SW-620 colon = tested on: SW-620 colon
T-47D breast = tested on: T-47D breast
TK-10 renal = tested on: TK-10 renal
U251 CNS = tested on: U251 CNS
UACC-257 melanoma = tested on: UACC-257 melanoma
UACC-62 melanoma = tested on: UACC-62 melanoma
UO-31 renal = tested on: UO-31 renal
A498 renal = tested on: A498 renal
K-562 leukemia = tested on: K-562 leukemia
RXF 393 renal = tested on: RXF 393 renal
SK-OV-3 ovarian = tested on: SK-OV-3 ovarian

COc1cc(C=Nc2ccc(Oc3ccc(Cl)cc3)c(Cl)c2)cc(OC)c1OC
TGI (786-0 renal): 29.6 µM
TGI (A549 NSCLC): 44.7 µM
TGI (ACHN renal): 83.8 µM
TGI (BT-549 breast): 38 µM
TGI (CAKI-1 renal): 72 µM
TGI (CCRF-CEM leukemia): 66.4 µM
TGI (COLO 205 colon): 34 µM
TGI (DU-145 prostate): 38.6 µM
TGI (EKVX NSCLC): 48.1 µM
TGI (HCC-2998 colon): 40.3 µM
TGI (HCT-116 colon): 29.2 µM
TGI (HCT-15 colon): 39.2 µM
TGI (HL-60(TB) leukemia): 48.6 µM
TGI (HOP-62 NSCLC): 49 µM
TGI (HOP-92 NSCLC): 39.4 µM
TGI (HS 578T breast): 41.6 µM
TGI (HT29 colon): 44 µM
TGI (IGROV1 ovarian): 67.1 µM
TGI (KM12 colon): 38.1 µM
TGI (LOX IMVI melanoma): 32.2 µM
TGI (M14 melanoma): 58.2 µM
TGI (MALME-3M melanoma): 35.8 µM
TGI (MCF7 breast): 95.5 µM
TGI (MDA-MB-231 breast): 35 µM
TGI (MDA-MB-435): > 100 µM
TGI (MDA-N): 51.3 µM
TGI (MOLT-4 leukemia): 76 µM
TGI (NCI-H226 lung): 80.9 µM
TGI (NCI-H23 lung): 42 µM
TGI (NCI-H460 lung): 39.9 µM
TGI (NCI-H522 lung): 28.1 µM
TGI (NCI/ADR-RES ovarian): 48.8 µM
TGI (OVCAR-3 ovarian): 48.4 µM
TGI (OVCAR-4 ovarian): 62.3 µM
TGI (OVCAR-5 ovarian): > 100 µM
TGI (OVCAR-8 ovarian): 62.1 µM
TGI (PC-3 prostate): 36.2 µM
TGI (RPMI-8226 leukemia): > 100 µM
TGI (SF-268 CNS): 30.5 µM
TGI (SF-295 CNS): 37.3 µM
TGI (SF-539 CNS): 35.2 µM
TGI (SK-MEL-2 melanoma): 45.9 µM
TGI (SK-MEL-28 melanoma): 53.8 µM
TGI (SK-MEL-5 melanoma): 34.9 µM
TGI (SN12C renal): 40.3 µM
TGI (SNB-19 CNS): 49.1 µM
TGI (SNB-75 CNS): 57.9 µM
TGI (SR leukemia): 54.1 µM
TGI (SW-620 colon): > 100 µM
TGI (T-47D breast): 39.7 µM
TGI (TK-10 renal): > 100 µM
TGI (U251 CNS): 40.8 µM
TGI (UACC-257 melanoma): 47.7 µM
TGI (UACC-62 melanoma): 30.4 µM
TGI (UO-31 renal): 23.2 µM

O=C1N[C@@H](c2c[nH]c3ccc(Br)cc23)C(=O)N[C@H]1c1c[nH]c2ccc(Br)cc12
TGI (786-0 renal): 25.6 µM
TGI (A498 renal): 18.5 µM
TGI (A549 NSCLC): 33.8 µM
TGI (ACHN renal): 15.8 µM
TGI (BT-549 breast): 35.4 µM
TGI (CAKI-1 renal): 30.4 µM
TGI (CCRF-CEM leukemia): 24 µM
TGI (COLO 205 colon): 20 µM
TGI (DU-145 prostate): 27.3 µM
TGI (EKVX NSCLC): 29.7 µM
TGI (HCC-2998 colon): 11.8 µM
TGI (HCT-116 colon): 21.8 µM
TGI (HCT-15 colon): 37 µM
TGI (HL-60(TB) leukemia): 26.6 µM
TGI (HOP-62 NSCLC): 27 µM
TGI (HOP-92 NSCLC): 15.5 µM
TGI (HS 578T breast): 34.3 µM
TGI (HT29 colon): 20.2 µM
TGI (IGROV1 ovarian): 29.4 µM
TGI (K-562 leukemia): 18.9 µM
TGI (KM12 colon): 18.6 µM
TGI (LOX IMVI melanoma): 20.9 µM
TGI (M14 melanoma): 21.2 µM
TGI (MALME-3M melanoma): 28.8 µM
TGI (MCF7 breast): 35.2 µM
TGI (MDA-MB-231 breast): 26.3 µM
TGI (MDA-MB-435): 16.8 µM
TGI (MDA-N): 20.7 µM
TGI (MOLT-4 leukemia): 20.1 µM
TGI (NCI-H226 lung): 26.9 µM
TGI (NCI-H23 lung): 28.2 µM
TGI (NCI-H460 lung): 27.8 µM
TGI (NCI-H522 lung): 24 µM
TGI (NCI/ADR-RES ovarian): > 100 µM
TGI (OVCAR-3 ovarian): 28.4 µM
TGI (OVCAR-4 ovarian): 24 µM
TGI (OVCAR-5 ovarian): 28.8 µM
TGI (OVCAR-8 ovarian): 26 µM
TGI (PC-3 prostate): 16.1 µM
TGI (RPMI-8226 leukemia): 38.2 µM
TGI (RXF 393 renal): 43.4 µM
TGI (SF-268 CNS): 26.3 µM
TGI (SF-295 CNS): 25.2 µM
TGI (SF-539 CNS): 18.9 µM
TGI (SK-MEL-2 melanoma): 29.4 µM
TGI (SK-MEL-28 melanoma): 28.5 µM
TGI (SK-MEL-5 melanoma): 17.7 µM
TGI (SK-OV-3 ovarian): 31.1 µM
TGI (SN12C renal): 27.4 µM
TGI (SNB-19 CNS): 49.2 µM
TGI (SNB-75 CNS): 9.03 µM
TGI (SR leukemia): 19.3 µM
TGI (SW-620 colon): 26.2 µM
TGI (T-47D breast): 36.4 µM
TGI (TK-10 renal): 21.7 µM
TGI (U251 CNS): 21.9 µM
TGI (UACC-257 melanoma): 26.8 µM
TGI (UACC-62 melanoma): 23.2 µM
TGI (UO-31 renal): 45 µM
